The values below come from a melting point compilation (Tetko et al.; mined from patent text by program, amines drawn as free bases though some values may be those of a salt).

SMILES strings stand for the structures.

Broadly, the melting point is the temperature of the solid-liquid transition.

For `CC(C)n1c(=O)n(C(=O)NCC2CCN(CC3(C(=O)O)CCCC3)CC2)c2ccccc21`, the melting point was 165 °C.
`CC(CC(C)(C)O)=NO` had a melting point of 159 to 161 °C.
Then `O=C(CCc1nnc(Nc2ccccc2Cl)o1)NC1CCN(Cc2ccc(Cl)c(Cl)c2)CC1`, with 154 to 156 °C; and `O=C(O)C(F)c1ccc(Cl)cc1` (configuration not stated), with 66 to 68 °C.
The same measure for `[N-]=[N+]=NCC(COC(C(F)(F)F)(C(F)(F)F)C(F)(F)F)(COC(C(F)(F)F)(C(F)(F)F)C(F)(F)F)C(=O)O`: 97 to 98 °C; for `CC(=O)Nn1c(=S)[nH]c2cc(C(F)(F)F)ccc21`: 294 to 295 °C; for `Cc1c(C)c2c(c(C)c1N)CC(C)(C(=O)N1CCc3c([nH]c4ccccc34)C1)O2` (configuration not stated): 129 to 133 °C.
Then `CC1=C(C(=O)OC(C)C)C(c2cccc([N+](=O)[O-])c2)N(CCCc2ccccc2)C(=O)N1` (configuration not stated), with 150 to 152 °C; and `COc1ccc(Cl)cc1C(=O)NC1Cc2cc(S(=O)(=O)NC(=S)NC(C)C)c(OC)cc2OC1(C)C` (configuration not stated), with 201 to 202 °C.
In turn, `CC[C@@H]1O[C@](C#CC2CC2)(C(F)(F)F)c2c(ccc3c2OCO3)NC1=O` (relative stereo) registered a melting point of 201 to 202 °C.
Then `CNC(=O)[C@@H](NC(=O)[C@@H](CC(=O)OCc1ccccc1)n1ccc(-c2ccc(C#N)cc2)c1)C(C)(C)C`, with 102 to 104 °C; and `CN(C(=O)Nc1nc(OCC(F)(F)F)nc(OCC(F)(F)F)n1)c1ccc(Cl)cc1`, with 218 to 219 °C.
Take `CNCCNC(=O)c1nc(Cl)c(N)nc1N`: the melting point was in the range of 142 to 143 °C.
The molecule `CC1(C)CCC(N2c3ccccc3Oc3ccc(C(F)(F)F)cc32)=N1` yielded a melting point of 64 to 67 °C.
Consider `CN1Cc2c(C#CC(C)(C)O)ncn2-c2ccccc2C1=O`, for which the melting point fell in the range of 168 to 169 °C.
Then `COC(=O)CCC(=O)c1ccc(F)cc1`, with 48 to 50 °C; and `NC(=O)OCC(O)COc1cc(-c2cccc(Cl)c2)on1` (configuration not stated), with 149 to 150 °C; and `Cn1cncc1-c1cc(C=NN(CCC(C)(C)O)C(N)=S)nc(NC2CCN(S(C)(=O)=O)CC2)n1`, with 204 to 206 °C.
Then `CC(C)(C)OC(=O)C[C@@H]1C[C@@H](COc2ccc(-c3ccc(C#N)c(Cl)c3)cc2)NC1=O`, with 140 to 142 °C; and `Cc1ccc(SCCC(=O)c2cc(O)c(O)c([N+](=O)[O-])c2)cc1`, with 160 to 161 °C.
The same measure for `Cc1nc2c(c(=O)[nH]1)-c1ccc(Cl)cc1C(c1ccccc1)=NC2`: 245 to 248 °C; for `NC(=CC(=O)C1CC1)c1ccncc1`: 159 to 166 °C; for `Cc1cc(C(=O)OC(C)(C)C)ccc1[N+](=O)[O-]`: 56 to 58 °C.
For the molecule `CCOC(=O)C(=O)Nc1cccnc1`, the melting point was 98 to 100 °C.
`CC(=O)c1ccc2c(c1)ncn2-c1cccc(-n2ccnc2)c1` registered a melting point of 205 to 206 °C.
Then `COc1cc(NC(=O)c2csc(NC(=O)NCc3ccccc3)n2)ccc1OCC(=O)O`, with 210 °C; and `CCOP(=O)(CN(CCCc1ccccc1)C(=O)Cc1cc(C(C)(C)C)c(O)c(C(C)(C)C)c1)OCC`, with 134 to 136 °C; and `CCCCc1ccc(NC(=O)NOCc2ccccc2)cc1`, with 90.6 to 91.4 °C.
The same measure for `COC(=O)CCCCCCCC(=O)CCC(=O)COC(C)=O`: 64 to 65 °C; for `CCCCCCCCCCCCc1nnn(C(C)C(=O)Nc2c(OC)cc(OC)cc2OC)n1` (configuration not stated): 155 to 157 °C; for `O=C1Nc2ccccc2CN(c2ccccc2)N1`: 283 to 286 °C.
Then `CC(C)NC(=O)c1c(NC(=O)c2cc(C(F)(F)F)nn2-c2ncccc2Cl)ccc2cccnc12`, with 225 to 226 °C; and `CCN(C(=O)C(C)O)c1cn(-c2cccnc2)nc1Cl` (configuration not stated), with 137 to 138 °C; and `COC(=O)N1CC[C@H](Nc2nc3cncnc3n2Cc2ccc(F)cc2)[C@H](C)C1` (relative stereo), with 152 °C.
Molecule `COC(=O)c1ccc(-n2cc3ccccc3n2)cc1` yielded a melting point of 80 to 81 °C.
For the molecule `Cc1c(C)c(N2CCN(c3ccc(C(F)(F)F)cc3)CC2)c(C)c2c1OC(C)(C)C2N1CCCCC1` (configuration not stated), the melting point was 182 to 183 °C.
The same measure for `N#Cc1cnc(Nc2ccc(CCO)cc2)nc1-c1ccccc1`: 142 to 143 °C.
Then `C[C@H](NC(=O)C[C@H](O)C[C@H](O)/C=C/c1c(C2CC2)nc2ccccc2c1-c1ccc(F)cc1)c1ccccc1`, with 57 to 76 °C; and `O=C(NC1CC1)c1c(NC(=O)c2cc(C(F)(F)F)nn2-c2ncccc2Cl)ccc2cc[nH]c12`, with 239 to 241 °C.
The same measure for `Cc1ccc(S(=O)(=O)N2CCSC2=C(c2cccc(C)c2C)C(N)c2cccc(C)c2)cc1` (configuration not stated): 141 to 144 °C; for `N#Cc1c(O)nc2onc(-c3ccccc3)c2c1N`: 251 °C; for `CN(C1CCN(Cc2ccccn2)CC1)S(=O)(=O)c1ccc(Nc2nccc(Nc3ccc(F)cc3)n2)cc1`: 202 to 204 °C.
For the molecule `CCN(CC)C(=O)C1CCCN(C(=O)CN(C(=O)CNC(=O)Nc2cccc(C)c2)c2ccccc2)C1` (racemic), the melting point was found to be 156 °C.
The same measure for `COc1c(CC(=O)O)cccc1Oc1ccccc1Cl`: 87 to 92 °C; for `Cc1ccc(N2CCN(CCCN3c4cccc5cccc(c45)S3(=O)=O)CC2)cc1`: 136 °C; for `COc1ccc2[nH]c3c([N+](=O)[O-])cc([N+](=O)[O-])c(Cl)c3c(=O)c2c1`: 253 to 254 °C.
Then `CC(c1c(F)ccc(F)c1Cl)N1CCNc2ncc(I)cc21` (configuration not stated), with 166 °C.
Then `COC(=O)C(CO)NS(=O)(=O)c1ccc(OC)cc1` (configuration not stated), with 92 to 94 °C.
Molecule `CCOC(=O)c1cnc2cn[nH]c2c1Nc1ccsc1` yielded a melting point of 174 to 175 °C.
Then `COc1ccc(C2(C(=O)Oc3ccc(C(=O)NO)cc3)CCCC2)cc1`, with 143 to 144 °C; and `CCOc1cc2ncc(C#N)c(Nc3ccc4c(c3)C(=O)OC4)c2cc1OCC`, with 280 to 284 °C.
Then `O=C(O)c1ccc(CNC(=O)C(CS)Cc2ccccc2)cc1` (configuration not stated), with 156 to 159 °C.
Then `CCOC(=O)Cc1c(C(=O)CC)sc2[nH]c(C(=O)CC)cc12`, with 147 to 148 °C.
`CC(=O)NCc1c(O)cc2c3c(cccc13)C(=O)N(O)C2=O` showed a melting point of 268 to 272 °C.
The molecule `COc1cc(OC)nc(-c2c(C)[nH]c3ccccc23)n1` showed a melting point of 182 to 184 °C.
Then `CC(=O)SCC(C(=O)NCCc1nnn[nH]1)C(F)(F)F` (configuration not stated), with 157 to 160 °C; and `CCC(CC)c1nnc(SC)n(N)c1=O`, with 50 to 56 °C; and `COCCN1CCc2ccc(OC)c(Nc3ncc(Cl)c(N[C@@H]4CCCC[C@H]4NS(C)(=O)=O)n3)c2CC1`, with 93 to 100 °C.
The molecule `O=S1(=O)CCCS(=O)(=O)C1(CCCCl)c1ccccc1` showed a melting point of 182 °C.
Then `CS(=O)CC(=O)c1ccc(Cl)cc1N` (configuration not stated), with 129 to 132 °C; and `CC(C)(C)OC(=O)N1CCN(c2nsnc2Cl)CC1`, with 83 to 86 °C; and `CCCNC(=O)COC1C(O)C(CO)OC(Oc2ccc(N)cc2)C1O` (configuration not stated), with 154 °C.
The same measure for `CC(C)(C)OC(=O)Nc1c(F)cccc1[N+](=O)[O-]`: 100 to 101 °C; for `COc1ccc(-c2ncc(NC(=O)OCc3ccccc3)c(=O)n2CC(=O)NC(Cc2ccccc2)C(=O)C(F)(F)F)cc1` (configuration not stated): 172 to 174 °C.
The same measure for `CC(C)(F)Cn1c(N)nc2c(N)nc3ccccc3c21`: 251 °C; for `N#Cc1[nH]c(-c2ccc(Cl)cc2Cl)nc1N`: 223 to 225 °C; for `CCCOCCOC(=O)C1=C(C)NC(C)=C(C(=O)C(C)S(=O)(=O)NC)C1c1cccc([N+](=O)[O-])c1` (configuration not stated): 120 to 123 °C.
Regarding `Cn1cncc1C(O)(c1ccc(Cl)cc1)c1ccc2nc(C#Cc3ccccc3)cc(-c3cccc(Cl)c3)c2c1` (configuration not stated), the melting point stood at 154 °C.
Then `CS(=O)(=O)N1CCC=CCC1`, with 95 to 96 °C; and `c1ccc(-c2cn(C3CCCN4CCCCC34)nn2)cc1` (configuration not stated), with 150 °C; and `Cc1ccc2cccc3c2c1N(Cc1ccccc1)C3=NCCCn1ccnc1`, with 107 to 109 °C.
Turning to `CCNCCn1c(-c2ccc(Br)cc2)cc2c1CCSC2`, the melting point lay in the range of 84 to 85 °C.
The same measure for `COC(=O)[C@H](CO)NC(=O)[C@H](Cc1ccccc1)NC(=O)OC(C)(C)C`: 90 to 93 °C; for `CCCCc1nc2c(N)nc3ccccc3c2n1CCOc1ccccc1`: 168 to 170 °C.
Then `C/C(=C\c1ccc(C(=O)O)cc1)c1cc2c(s1)C(C)(C)CCC2(C)C`, with 236 to 238 °C; and `CNc1ccc(C2CC(=O)N(C)C2C(O)c2ccc(-c3ccccc3)s2)cc1` (configuration not stated), with 212 °C; and `Cc1cc(-c2nc3c(Cl)cccc3c(=O)n2-c2ccc(Br)cc2)cc(C)c1OCCO`, with 185 to 186 °C.
Then `CCCCc1c2c(nn1C(C)(C)C)c(N)nc1ccccc12`, with 222 to 223 °C; and `COC(=O)c1cc(N)c(F)cc1Cl`, with 76 to 78 °C.
The molecule `CC(=O)Nc1cccc(C#CC=Cc2cccc(NC(C)=O)c2)c1` yielded a melting point of 276 to 278 °C.
Then `O=c1oc(-c2ccc(C(F)(F)F)cc2)nn1Cc1cc(Cl)ccc1O`, with 144 to 145 °C; and `CNC(=O)Nc1nc(CC(=O)Nc2cccc(C(F)(F)F)c2)cs1`, with 200 to 203 °C.
The same measure for `CCNC(=O)Oc1cc2c(cc1Cl)CCN(C)C[C@H]2c1ccccc1`: 133 to 134 °C; for `COC(=O)c1cc(C(=O)c2cc(C(=O)OC)c(OC)c([N+](=O)[O-])c2)cc([N+](=O)[O-])c1OC`: 96 to 98 °C; for `CN(C)C1=C(C#N)C(c2ccc(Cl)c([N+](=O)[O-])c2)c2ccc3ccccc3c2O1` (configuration not stated): 218 °C.
The same measure for `CCC(=O)N(C)N1CC(C)(C)C(=O)c2ccc(S(=O)(=O)c3ccccc3)cc21`: 153 to 155 °C; for `O=[N+]([O-])c1ccc(Nc2cccc(O)c2)cc1`: 158 to 160 °C.
